Assay results taken from the supplement of paper PMC11061612.

Columns and labels:
Taselisib = compound: Cc1nc(-c2cn3c(n2)-c2ccc(-c4cnn(C(C)(C)C(N)=O)c4)cc2OCC3)n(C(C)C)n1 [Taselisib]; details: max 10 µM
Outline: (§1)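 In 1536-well plates, cancer cell lines in 7.5 μl DMEM/F12 or RPMI with 10% FBS spent 24 hours at 37°C and 5% CO2 and were then dosed for 72 hours with final DMSO typically 0.2%. Viability was read by CellTiter-Glo 2.0 luminescence and scaled between blank-well and DMSO-well means. The single-agent IC50 was fitted from dose responses using a logistic curve in a non-linear mixed effects model, and that logistic curve had two parameters.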

Palbociclib = compound: CC(=O)c1c(C)c2cnc(Nc3ccc(N4CCNCC4)cn3)nc2n(C2CCCC2)c1=O [Palbociclib]; details: max 10 µM
Outline: as §1

AZD8186 = compound: C[C@@H](Nc1cc(F)cc(F)c1)c1cc(C(=O)N(C)C)cc2c(=O)cc(N3CCOCC3)oc12 [AZD8186]; details: max 10 µM
Outline: as §1

SRA737 = compound: N#Cc1cnc(Nc2cc(NC[C@H]3CNCCO3)c(C(F)(F)F)cn2)cn1 [SRA737]; details: max 10 µM
Outline: as §1

SG3199 = compound: CC1=CN2[C@@H](C1)C=NC3=CC(=C(C=C3C2=O)OC)OCCCCCOC4=C(C=C5C(=C4)N=C[C@@H]6CC(=CN6C5=O)C)OC [SG3199]; details: max 0.001 µM
Outline: as §1

AZD5153 = compound: COc1nnc2ccc(N3CCC(c4ccc(OCCN5CCN(C)C(=O)[C@H]5C)cc4)CC3)nn12 [AZD5153]; details: max 1 µM
Outline: as §1

AZD2811 = compound: CCN(CCO)CCCOc1ccc2c(Nc3cc(CC(=O)Nc4cccc(F)c4)[nH]n3)ncnc2c1 [AZD2811]; details: max 1 µM
Outline: as §1

AZD6738 = compound: C[C@@H]1COCCN1C2=NC(=NC(=C2)C3(CC3)[S@](=N)(=O)C)C4=C5C=CNC5=NC=C4 [AZD6738]; details: max 10 µM
Outline: as §1

AZD5363 = compound: C1CN(CCC1(C(=O)N[C@@H](CCO)C2=CC=C(C=C2)Cl)N)C3=NC=NC4=C3C=CN4 [AZD5363]; details: max 10 µM
Outline: as §1

Selumetinib = compound: Cn1cnc2c(F)c(Nc3ccc(Br)cc3Cl)c(C(=O)NOCCO)cc21 [Selumetinib]; details: max 10 µM
Outline: as §1

Savolitinib = compound: C[C@@H](c1ccc2nccn2c1)n1nnc2ncc(-c3cnn(C)c3)nc21 [Savolitinib]; details: max 1 µM
Outline: as §1

SN-38 = compound: CCc1c2c(nc3ccc(O)cc13)-c1cc3c(c(=O)n1C2)COC(=O)[C@]3(O)CC [SN-38]; details: max 0.3 µM
Outline: as §1

AZD1775 = compound: C=CCn1c(=O)c2cnc(Nc3ccc(N4CCN(C)CC4)cc3)nc2n1-c1cccc(C(C)(C)O)n1 [AZD1775]; details: max 3 µM
Outline: as §1

Doxorubicin = compound: COc1cccc2c1C(=O)c1c(O)c3c(c(O)c1C2=O)C[C@@](O)(C(=O)CO)C[C@@H]3O[C@H]1C[C@H](N)[C@H](O)[C@H](C)O1 [Doxorubicin]; details: max 1 µM
Outline: as §1

AZD1390 = compound: CC(C)n1c(=O)n(C)c2cnc3cc(F)c(-c4ccc(OCCCN5CCCCC5)nc4)cc3c21 [AZD1390]; details: max 0.3 µM
Outline: as §1

Lapatinib = compound: CS(=O)(=O)CCNCc1ccc(-c2ccc3ncnc(Nc4ccc(OCc5cccc(F)c5)c(Cl)c4)c3c2)o1 [Lapatinib]; details: max 10 µM
Outline: as §1

Paclitaxel = compound: CC(=O)O[C@H]1C(=O)[C@@]2(C)[C@H]([C@H](OC(=O)c3ccccc3)[C@]3(O)C[C@H](OC(=O)[C@H](O)[C@@H](NC(=O)c4ccccc4)c4ccccc4)C(C)=C1C3(C)C)[C@]1(OC(C)=O)CO[C@@H]1C[C@@H]2O [Paclitaxel]; details: max 3 µM
Outline: as §1

AZD7648 = compound: Cc1cc2ncnn2cc1Nc1ncc2c(n1)n(C1CCOCC1)c(=O)n2C [AZD7648]; details: max 10 µM
Outline: as §1

[1] = compound: O=C(Nc1ccc2[nH]nc(-c3ccncc3)c2c1)[C@@H]1CCN(CC(=O)N2CCN(c3ccc(-c4ncccn4)cc3)CC2)C1; details: max 5 µM
Outline: as §1

Alisertib = compound: COc1cc(Nc2ncc3c(n2)-c2ccc(Cl)cc2C(c2c(F)cccc2OC)=NC3)ccc1C(=O)O [Alisertib]; details: max 10 µM
Outline: as §1

AZD4320 = compound: CN(CC[C@H](CSC1=CC=CC=C1)NC2=C(C=C(C=C2)S(=O)(=O)NC(=O)C3=CC=C(C=C3)N4CCC(CC4)[C@H](C5=CC=CC=C5C6=CC=C(C=C6)Cl)O)S(=O)(=O)C(F)(F)F)CCO [AZD4320]; details: max 1 µM
Outline: as §1

AZD5991 = compound: Cc1c2c(nn1C)CSCc1cc(n(C)n1)CSc1cc(c3ccccc3c1)OCCCc1c(C(=O)O)n(C)c3c-2c(Cl)ccc13 [AZD5991]; details: max 1 µM
Outline: as §1

Olaparib = compound: O=C(c1cc(Cc2n[nH]c(=O)c3ccccc23)ccc1F)N1CCN(C(=O)C2CC2)CC1 [Olaparib]; details: max 10 µM
Outline: as §1

AZD0156 = compound: CN(C)CCCOc1ccc(-c2ccc3ncc4c(c3c2)n(C2CCOCC2)c(=O)n4C)cn1 [AZD0156]; details: max 3 µM
Outline: as §1

Etoposide = compound: COc1cc([C@@H]2c3cc4c(cc3[C@@H](O[C@@H]3O[C@@H]5CO[C@@H](C)O[C@H]5[C@H](O)[C@H]3O)[C@H]3COC(=O)[C@H]23)OCO4)cc(OC)c1O [Etoposide]; details: max 10 µM
Outline: as §1

Carboplatin = compound: C1CC(C1)(C(=O)[O-])C(=O)[O-].N.N.[Pt+2] [Carboplatin]; details: max 10 µM
Outline: as §1

Prexasertib = compound: COc1cccc(OCCCN)c1-c1cc(Nc2cnc(C#N)cn2)n[nH]1 [Prexasertib]; details: max 1 µM
Outline: as §1

Venetoclax = compound: CC1(C)CCC(CN2CCN(c3ccc(C(=O)NS(=O)(=O)c4ccc(NCC5CCOCC5)c([N+](=O)[O-])c4)c(Oc4cnc5[nH]ccc5c4)c3)CC2)=C(c2ccc(Cl)cc2)C1 [Venetoclax]; details: max 1 µM
Outline: as §1

Trametinib = compound: CC(=O)Nc1cccc(-n2c(=O)n(C3CC3)c(=O)c3c(Nc4ccc(I)cc4F)n(C)c(=O)c(C)c32)c1 [Trametinib]; details: max 1 µM
Outline: as §1

5-Fluorouracil = compound: O=c1[nH]cc(F)c(=O)[nH]1 [5-Fluorouracil]; details: max 20 µM
Outline: as §1

Crizotinib = compound: C[C@@H](Oc1cc(-c2cnn(C3CCNCC3)c2)cnc1N)c1c(Cl)ccc(F)c1Cl [Crizotinib]; details: max 10 µM
Outline: as §1

Dasatinib = compound: CC1=C(C(=CC=C1)Cl)NC(=O)C2=CN=C(S2)NC3=CC(=NC(=N3)C)N4CCN(CC4)CCO [Dasatinib]; details: max 2 µM
Outline: as §1

Gemcitabine = compound: Nc1ccn([C@@H]2O[C@H](CO)[C@@H](O)C2(F)F)c(=O)n1 [Gemcitabine]; details: max 0.3 µM
Outline: as §1

Gefitinib = compound: COc1cc2ncnc(Nc3ccc(F)c(Cl)c3)c2cc1OCCCN1CCOCC1 [Gefitinib]; details: max 10 µM
Outline: as §1

MK-2206 = compound: NC1(c2ccc(-c3nc4ccn5c(=O)[nH]nc5c4cc3-c3ccccc3)cc2)CCC1 [MK-2206]; details: max 10 µM
Outline: as §1

Row | Cell Line | IC50, cell viability 72 h (Taselisib) [µM] | IC50, cell viability 72 h (Palbociclib) [µM] | IC50, cell viability 72 h (AZD8186) [µM] | IC50, cell viability 72 h (SRA737) [µM] | IC50, cell viability 72 h (SG3199) [µM] | IC50, cell viability 72 h (AZD5153) [µM] | IC50, cell viability 72 h (AZD2811) [µM] | IC50, cell viability 72 h (AZD6738) [µM] | IC50, cell viability 72 h (AZD5363) [µM] | IC50, cell viability 72 h (Selumetinib) [µM] | IC50, cell viability 72 h (Savolitinib) [µM] | IC50, cell viability 72 h (SN-38) [µM] | IC50, cell viability 72 h (AZD1775) [µM] | IC50, cell viability 72 h (Doxorubicin) [µM] | IC50, cell viability 72 h (AZD1390) [µM] | IC50, cell viability 72 h (Lapatinib) [µM] | IC50, cell viability 72 h (Paclitaxel) [µM] | IC50, cell viability 72 h (AZD7648) [µM] | IC50, cell viability 72 h [1] [µM] | IC50, cell viability 72 h (Alisertib) [µM] | IC50, cell viability 72 h (AZD4320) [µM] | IC50, cell viability 72 h (AZD5991) [µM] | IC50, cell viability 72 h (Olaparib) [µM] | IC50, cell viability 72 h (AZD0156) [µM] | IC50, cell viability 72 h (Etoposide) [µM] | IC50, cell viability 72 h (Carboplatin) [µM] | IC50, cell viability 72 h (Prexasertib) [µM] | IC50, cell viability 72 h (Venetoclax) [µM] | IC50, cell viability 72 h (Trametinib) [µM] | IC50, cell viability 72 h (5-Fluorouracil) [µM] | IC50, cell viability 72 h (Crizotinib) [µM] | IC50, cell viability 72 h (Dasatinib) [µM] | IC50, cell viability 72 h (Gemcitabine) [µM] | IC50, cell viability 72 h (Gefitinib) [µM] | IC50, cell viability 72 h (MK-2206) [µM]
1 | SK-N-FI (Neuroblastoma) | 0.955 | > 10 | > 10 | > 10 | > 0.001 | 0.447 | > 1 | 8.51 | > 10 | 7.75 | > 1 | 0.157 | 1.6 | > 1 | > 0.3 | > 10 | 2.25 | > 10 | > 5 | 2.48 | > 1 | > 1 | > 10 | > 3 | > 10 | > 10 | 0.0603 | > 1 | 0.117 | > 20 | > 10 | > 2 | > 0.3 | > 10 | > 10
2 | SN12C (Kidney Carcinoma) | > 10 | > 10 | > 10 | > 10 | > 0.001 | > 1 | > 1 | > 10 | > 10 | > 10 | > 1 | 0.29 | > 3 | > 1 | > 0.3 | > 10 | > 3 | > 10 | > 5 | > 10 | > 1 | > 1 | > 10 | > 3 | > 10 | > 10 | > 1 | > 1 | > 1 | > 20 | > 10 | > 2 | > 0.3 | > 10 | > 10
3 | SW1088 (Low Grade Glioma) | 4.28 | > 10 | 1.74 | > 10 | > 0.001 | > 1 | > 1 | 9.51 | 6.48 | > 10 | > 1 | > 0.3 | 2.04 | > 1 | > 0.3 | > 10 | 0.0291 | > 10 | > 5 | 0.807 | > 1 | > 1 | > 10 | > 3 | > 10 | > 10 | 0.129 | > 1 | > 1 | > 20 | > 10 | 0.283 | > 0.3 | > 10 | > 10
4 | SW1783 (Low Grade Glioma) | 5.98 | > 10 | 8 | > 10 | > 0.001 | > 1 | > 1 | > 10 | > 10 | > 10 | > 1 | 0.0452 | 1.41 | > 1 | > 0.3 | > 10 | 0.407 | > 10 | > 5 | 8.54 | > 1 | > 1 | > 10 | > 3 | > 10 | > 10 | > 1 | > 1 | > 1 | > 20 | > 10 | > 2 | 0.121 | > 10 | > 10
5 | SW1990 (Pancreatic Carcinoma) | > 10 | > 10 | > 10 | 9.75 | > 0.001 | > 1 | > 1 | > 10 | > 10 | > 10 | > 1 | > 0.3 | > 3 | > 1 | > 0.3 | > 10 | > 3 | > 10 | > 5 | > 10 | > 1 | > 1 | > 10 | > 3 | > 10 | > 10 | 0.0499 | > 1 | > 1 | > 20 | > 10 | > 2 | > 0.3 | > 10 | > 10
